Values joined by “and” are separate entries in the source; they are usually repeats but may differ in a detail not shown here. Equal entries are not always repeated.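 Where inhibition never reached the appropriate level, the endpoint shown equals the highest concentration tested. Otherwise, values were interpolated linearly from a five-concentration, 48-hour dose response in 96-well plates. The concentration for 50% growth inhibition is given as GI50. TGI denotes the concentration required for complete inhibition of growth.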
What was measured:
Assay in all cases: inhibition of tumour cell growth, NCI panel, 48 h
[1] = test system: 786-0 renal
[2] = test system: A498 renal
[3] = test system: A549 NSCLC
[4] = test system: ACHN renal
[5] = test system: BT-549 breast
[6] = test system: CAKI-1 renal
[7] = test system: CCRF-CEM leukemia
[8] = test system: COLO 205 colon
[9] = test system: DU-145 prostate
[10] = test system: EKVX NSCLC
[11] = test system: HCC-2998 colon
[12] = test system: HCT-116 colon
[13] = test system: HCT-15 colon
[14] = test system: HL-60(TB) leukemia
[15] = test system: HOP-62 NSCLC
[16] = test system: HOP-92 NSCLC
[17] = test system: HS 578T breast
[18] = test system: HT29 colon
[19] = test system: IGROV1 ovarian
[20] = test system: K-562 leukemia
[21] = test system: KM12 colon
[22] = test system: LOX IMVI melanoma
[23] = test system: M14 melanoma
[24] = test system: MALME-3M melanoma
[25] = test system: MCF7 breast
[26] = test system: MDA-MB-231 breast
[27] = test system: MDA-MB-435
[28] = test system: MOLT-4 leukemia
[29] = test system: NCI-H226 lung
[30] = test system: NCI-H460 lung
[31] = test system: NCI-H522 lung
[32] = test system: NCI/ADR-RES ovarian
[33] = test system: OVCAR-3 ovarian
[34] = test system: OVCAR-4 ovarian
[35] = test system: OVCAR-5 ovarian
[36] = test system: OVCAR-8 ovarian
[37] = test system: PC-3 prostate
[38] = test system: RPMI-8226 leukemia
[39] = test system: RXF 393 renal
[40] = test system: SF-268 CNS
[41] = test system: SF-295 CNS
[42] = test system: SF-539 CNS
[43] = test system: SK-MEL-2 melanoma
[44] = test system: SK-MEL-28 melanoma
[45] = test system: SK-MEL-5 melanoma
[46] = test system: SK-OV-3 ovarian
[47] = test system: SN12C renal
[48] = test system: SNB-19 CNS
[49] = test system: SNB-75 CNS
[50] = test system: SR leukemia
[51] = test system: SW-620 colon
[52] = test system: T-47D breast
[53] = test system: TK-10 renal
[54] = test system: U251 CNS
[55] = test system: UACC-257 melanoma
[56] = test system: UACC-62 melanoma
[57] = test system: UO-31 renal
[58] = test system: NCI-H23 lung

CCN(CC)CCCC(C)Nc1cnc(C(=O)Nc2cc(F)cc3cccnc23)cn1 (stereo not given)
GI50 [1]: 8.17 µM and 1.33 µM | TGI [1]: 22 µM and 2.7 µM | GI50 [2]: 2.72 µM and 1.6 µM | TGI [2]: 14.5 µM and 3.24 µM | GI50 [3]: 8.14 µM and 2.41 µM | TGI [3]: 22.3 µM and 6.28 µM | GI50 [4]: 2.81 µM and 0.683 µM | TGI [4]: 9.61 µM and 1.96 µM | GI50 [5]: 11.1 µM and 1.59 µM | TGI [5]: 24 µM and 3 µM | GI50 [6]: 2.89 µM and 2.05 µM | TGI [6]: 15.4 µM and 5.71 µM | GI50 [7]: 2.55 µM and 0.478 µM | TGI [7]: 10.6 µM | GI50 [8]: 1.16 µM and 0.461 µM | TGI [8]: 3.57 µM and 2.16 µM | GI50 [9]: 10.5 µM and 1.48 µM | TGI [9]: 23.1 µM and 2.84 µM | GI50 [10]: 10.2 µM and 1.22 µM | TGI [10]: 22.1 µM and 2.51 µM | GI50 [11]: 5.01 µM and 1.53 µM | TGI [11]: 18.4 µM and 2.97 µM | GI50 [12]: 2.7 µM and 0.35 µM | TGI [12]: 10.1 µM and 1.23 µM | GI50 [13]: 3.45 µM and 0.751 µM | TGI [13]: 13.8 µM and 2.69 µM | TGI [14]: 25.6 µM and 31.3 µM | GI50 [15]: 10.8 µM and 1.89 µM | TGI [15]: 25.3 µM and 3.62 µM | GI50 [16]: 2.43 µM and 1.19 µM | TGI [16]: 14.5 µM and 2.62 µM | GI50 [17]: 3.97 µM and 2.15 µM | TGI [17]: 21.1 µM and 6.62 µM | GI50 [18]: 2.96 µM and 0.668 µM | TGI [18]: 10.8 µM and 4.76 µM | GI50 [19]: 3.03 µM and 0.379 µM | TGI [19]: 12 µM and 1.4 µM | GI50 [20]: 1.95 µM and 0.46 µM | TGI [20]: 4.97 µM and > 32.5 µM | GI50 [21]: 6.09 µM and 1.78 µM | TGI [21]: 19.5 µM and 3.34 µM | GI50 [22]: 3.32 µM and 0.882 µM | TGI [22]: 11.3 µM and 2.28 µM | GI50 [23]: 2.04 µM and 0.994 µM | TGI [23]: 4.38 µM and 2.58 µM | GI50 [24]: 1.77 µM and 0.983 µM | TGI [24]: 3.38 µM and 2.28 µM | GI50 [25]: 2.1 µM | TGI [25]: 6.91 µM | GI50 [26]: 3.42 µM and 0.568 µM | TGI [26]: 12.8 µM and 2.02 µM | GI50 [27]: 3.4 µM and 1.45 µM | TGI [27]: 12.8 µM and 3.43 µM | GI50 [28]: 1.94 µM and 0.496 µM | TGI [28]: 6.53 µM and > 43 µM | GI50 [29]: 4.71 µM and 1.99 µM | TGI [29]: 18.5 µM and 4.13 µM | GI50 [30]: 4.64 µM and 2.06 µM | TGI [30]: 16.6 µM and 4.22 µM | GI50 [31]: 5.51 µM and 1.26 µM | TGI [31]: 19 µM and 2.9 µM | GI50 [32]: 7.27 µM and 2.6 µM | TGI [32]: 21.6 µM and 11.2 µM | GI50 [33]: 2.14 µM and 0.349 µM | TGI [33]: 6.79 µM and 1.23 µM | GI50 [34]: 2.24 µM and 0.35 µM | GI50 [35]: 11 µM and 1.41 µM | TGI [35]: 23.1 µM and 2.91 µM | GI50 [36]: 7.03 µM and 1.29 µM | TGI [36]: 20.2 µM and 5.77 µM | GI50 [37]: 3.55 µM and 0.614 µM | TGI [37]: 15.3 µM and 2.24 µM | GI50 [38]: 2.97 µM and 0.502 µM | TGI [38]: 12.2 µM and > 20.5 µM | GI50 [39]: 4.26 µM and 1.32 µM | TGI [39]: 16.9 µM and 2.69 µM | GI50 [40]: 5.32 µM and 1.56 µM | TGI [40]: 20.9 µM and 3.25 µM | GI50 [41]: 12.7 µM and 1.81 µM | TGI [41]: 26.4 µM and 3.33 µM | GI50 [42]: 10.3 µM and 1.52 µM | TGI [42]: 22.2 µM and 2.89 µM | GI50 [43]: 3.78 µM and 2.55 µM | TGI [43]: 10.8 µM and 6.39 µM | GI50 [44]: 1.84 µM and 1.22 µM | TGI [44]: 3.53 µM and 2.5 µM | GI50 [45]: 1.78 µM and 1.58 µM | TGI [45]: 3.37 µM and 2.95 µM | GI50 [46]: 14 µM and 1.68 µM | TGI [46]: 27.7 µM and 3.68 µM | GI50 [47]: 6.4 µM and 1.23 µM | TGI [47]: 19.3 µM and 2.54 µM | GI50 [48]: 10.5 µM and 1.73 µM | TGI [48]: 22.8 µM and 3.14 µM | GI50 [49]: 4.49 µM and 1.45 µM | TGI [49]: 20.1 µM and 2.79 µM | GI50 [50]: 2.66 µM and 1.6 µM | GI50 [51]: 4.03 µM and 0.814 µM | TGI [51]: 15 µM and 2.62 µM | GI50 [52]: 0.759 µM and 0.505 µM | TGI [52]: 20.2 µM and 5.18 µM | GI50 [53]: 10.4 µM and 1.54 µM | TGI [53]: 22.4 µM and 3.12 µM | GI50 [54]: 5.72 µM and 1.56 µM | TGI [54]: 18.4 µM and 3.01 µM | GI50 [55]: 1.99 µM and 0.563 µM | TGI [55]: 4.13 µM and 1.94 µM | GI50 [56]: 2.28 µM and 1.27 µM | TGI [56]: 5.5 µM and 2.69 µM | GI50 [57]: 4.12 µM and 0.933 µM | TGI [57]: 17.1 µM and 2.23 µM

CO/N=C1/NC(=O)/C(=C/c2ccc3ncccc3c2)S1
GI50 [1]: 23.4 µM | TGI [1]: > 25 µM | GI50 [2]: 3.41 µM | TGI [2]: 11.5 µM | GI50 [3]: 10.7 µM | TGI [3]: > 25 µM | GI50 [4]: 10.6 µM | TGI [4]: > 25 µM | GI50 [5]: 9.1 µM | TGI [5]: > 25 µM | GI50 [6]: 8.49 µM | TGI [6]: > 25 µM | GI50 [7]: 10.9 µM | TGI [7]: > 25 µM | GI50 [8]: > 25 µM | TGI [8]: > 25 µM | GI50 [9]: 12.3 µM | TGI [9]: > 25 µM | GI50 [11]: > 25 µM | TGI [11]: > 25 µM | GI50 [12]: 17.4 µM | TGI [12]: > 25 µM | GI50 [13]: 9.13 µM | TGI [13]: > 25 µM | GI50 [14]: 13.8 µM | TGI [14]: > 25 µM | GI50 [15]: > 22.6 µM | TGI [15]: > 25 µM | GI50 [16]: 4.48 µM | TGI [16]: > 25 µM | GI50 [17]: 4.06 µM | TGI [17]: 17.5 µM | GI50 [18]: 16.8 µM | TGI [18]: > 25 µM | GI50 [19]: 4.78 µM | TGI [19]: 15.9 µM | GI50 [20]: > 25 µM | TGI [20]: > 25 µM | GI50 [21]: > 25 µM | TGI [21]: > 25 µM | GI50 [22]: 12.8 µM | TGI [22]: > 25 µM | GI50 [23]: 9.85 µM | TGI [23]: > 25 µM | GI50 [24]: 13.9 µM | TGI [24]: > 25 µM | GI50 [25]: 4.45 µM | TGI [25]: > 25 µM | GI50 [26]: > 25 µM | TGI [26]: > 25 µM | GI50 [27]: 15 µM | TGI [27]: > 25 µM | GI50 [28]: 16.1 µM | TGI [28]: > 25 µM | GI50 [29]: 6.5 µM | TGI [29]: > 25 µM | GI50 [58]: 12.2 µM | TGI [58]: > 25 µM | GI50 [30]: 9.08 µM | TGI [30]: > 25 µM | GI50 [31]: 12.3 µM | TGI [31]: > 25 µM | GI50 [32]: > 25 µM | TGI [32]: > 25 µM | GI50 [33]: 11.1 µM | TGI [33]: > 25 µM | GI50 [34]: > 25 µM | TGI [34]: > 25 µM | GI50 [35]: 6.16 µM | TGI [35]: > 25 µM | GI50 [36]: > 22.6 µM | TGI [36]: > 25 µM | GI50 [37]: 11.7 µM | TGI [37]: > 25 µM | GI50 [38]: > 25 µM | TGI [38]: > 25 µM | GI50 [39]: 9.81 µM | TGI [39]: > 25 µM | GI50 [40]: > 25 µM | TGI [40]: > 25 µM | GI50 [41]: 19.9 µM | TGI [41]: > 25 µM | GI50 [42]: 8.27 µM | TGI [42]: > 25 µM | GI50 [43]: 12.1 µM | TGI [43]: > 25 µM | GI50 [44]: 19.5 µM | TGI [44]: > 25 µM | GI50 [45]: > 14.1 µM | TGI [45]: > 25 µM | GI50 [46]: 7.78 µM | TGI [46]: > 25 µM | GI50 [47]: 16.3 µM | TGI [47]: > 25 µM | GI50 [48]: 11.6 µM | TGI [48]: > 25 µM | GI50 [49]: 4.07 µM | TGI [49]: > 25 µM | GI50 [50]: 14.7 µM | TGI [50]: > 25 µM | GI50 [51]: > 25 µM | TGI [51]: > 25 µM | GI50 [52]: 4.46 µM | TGI [52]: > 20.2 µM | GI50 [53]: 8.01 µM | TGI [53]: > 25 µM | GI50 [54]: 9.39 µM | TGI [54]: > 25 µM | GI50 [55]: 18 µM | TGI [55]: > 25 µM | GI50 [56]: 8.06 µM | TGI [56]: > 25 µM | GI50 [57]: 4.99 µM | TGI [57]: > 22.7 µM
